Source: ChEMBL document CHEMBL4041474, “Design, synthesis and pharmacological evaluation of 4,5-diarylisoxazols bearing amino acid residues within the 3-amido motif as potent heat shock protein 90 (Hsp90) inhibitors” (Eur J Med Chem, 2017)
Active and inactive are the calls of the source. No cut-off for these calls is given here.

How the values were obtained:
NCI-H3122 [1] = assay: Antiproliferative activity against human NCI-H3122 cells after 72 hrs by SRB assay; format: functional, cell-based; conditions: NCI-H3122, 72 h
[2] = biological target: Heat shock protein HSP 90-alpha (Homo sapiens, UniProt P07900); assay: Inhibition of fluorescein isothiocyanate labeled geldanamycin binding to recombinant Hsp90alpha (unknown origin) after 1 hr by fluorescence polarization assay
NCI-H3122 [3] = assay: Potency index, ratio of AUY922 IC50 to compound IC50 for human NCI-H3122 cells; format: functional
MDA-MB-231 = assay: Antiproliferative activity against human MDA-MB-231 cells after 72 hrs by SRB assay; format: functional, cell-based; conditions: MDA-MB-231, 72 h
NCI-H460 = assay: Antiproliferative activity against human NCI-H460 cells after 72 hrs by SRB assay; format: functional, cell-based; conditions: NCI-H460, 72 h
DU-145 = assay: Antiproliferative activity against human DU145 cells after 72 hrs by SRB assay; format: functional, cell-based; conditions: DU-145, 72 h
[4] = biological target: T1, Heat shock protein HSP90 (Homo sapiens) (UniProt P07900+P08238); conditions: 100 nM
Description: Inhibition of Hsp90 in human NCI-H3122 cells assessed as degradation of EML4-ALK fusion protein at 100 nM after 24 hrs by Western blot analysis

BT-474 = assay: Antiproliferative activity against human BT474 cells after 72 hrs by SRB assay; format: functional, cell-based; conditions: BT-474, 72 h
[5] = biological target: T1, Heat shock protein HSP90 (Homo sapiens); conditions: 11.1 to 100 nM
Description: Inhibition of Hsp90 in human NCI-H3122 cells assessed as decrease in phosphorylation of AKT at Ser473 at 11.1 to 100 nM after 24 hrs by Western blot analysis

A549 = assay: Antiproliferative activity against human A549 cells after 72 hrs by SRB assay; format: functional, cell-based; conditions: A549, 72 h
HCT-116 = assay: Antiproliferative activity against human HCT116 cells after 72 hrs by SRB assay; format: functional, cell-based; conditions: HCT-116, 72 h
U-87 MG = assay: Antiproliferative activity against human U87MG cells after 72 hrs by SRB assay; format: functional, cell-based, U-87MG ATCC
[6] = biological target: T1, Heat shock protein HSP90 (Homo sapiens); conditions: 11.1 to 100 nM; remark: listed apart in the source
Description: Inhibition of Hsp90 in human NCI-H3122 cells assessed as decrease in phosphorylation of ERK1/2 at 11.1 to 100 nM after 24 hrs by Western blot analysis

[7] = biological target: T1, Heat shock protein HSP90 (Homo sapiens); conditions: 11.1 to 100 nM; remark: listed apart in the source
Description: Inhibition of Hsp90 in human NCI-H3122 cells assessed as upregulation of Hsp70 at 11.1 to 100 nM after 24 hrs by Western blot analysis

NCI-N87 = assay: Antiproliferative activity against human NCI-N87 cells after 72 hrs by SRB assay; format: functional, cell-based; conditions: NCI-N87, 72 h

## COC(=O)[C@H](CCCCNC(=O)OCc1ccccc1)NC(=O)c1noc(-c2cc(C(C)C)c(O)cc2O)c1-c1ccc(CN2CCOCC2)cc1
NCI-H3122 [1]
  IC50: 4.47 µM
[2]
  IC50: 0.514 µM

## COC(=O)[C@H](NC(=O)COCCOCCNC(=O)c1noc(-c2cc(C(C)C)c(O)cc2O)c1-c1ccc(CN2CCOCC2)cc1)C(C)C
NCI-H3122 [1]
  IC50: 0.09 µM
[2]
  IC50: 0.154 µM

## COC(=O)[C@H](NC(=O)c1noc(-c2cc(C(C)C)c(O)cc2O)c1-c1ccc(CN2CCOCC2)cc1)C(C)C
NCI-H3122 [1]
  IC50: 0.028 µM
[2]
  IC50: 0.079 µM

## COC(=O)[C@@H](CC(C)C)NC(=O)c1noc(-c2cc(C(C)C)c(O)cc2O)c1-c1ccc(CN2CCOCC2)cc1
NCI-H3122 [1]
  IC50: 0.019 µM
[2]
  IC50: 0.151 µM

## CC(C)c1cc(-c2onc(C(=O)N[C@@H](C(=O)N3CC(F)(F)C3)C(C)C)c2-c2ccc(CN3CCOCC3)cc2)c(O)cc1O
NCI-H3122 [1]
  IC50: 0.037 µM
[2]
  IC50: 0.039 µM

## CNC(=O)[C@H](NC(=O)c1noc(-c2cc(C(C)C)c(O)cc2O)c1-c1ccc(CN2CCOCC2)cc1)C(C)C
NCI-H3122 [1]
  IC50: 0.039 µM
[2]
  IC50: 0.021 µM

## COC(=O)[C@H](NC(=O)c1cnc(N2CCN(C(=O)c3noc(-c4cc(C(C)C)c(O)cc4O)c3-c3ccc(CN4CCOCC4)cc3)CC2)nc1)C(C)C
NCI-H3122 [1]
  IC50: 0.135 µM
[2]
  IC50: 0.473 µM

## CC(C)c1cc(-c2onc(C(=O)N[C@@H](C(=O)N3CCN(C)CC3)C(C)C)c2-c2ccc(CN3CCOCC3)cc2)c(O)cc1O
NCI-H3122 [1]
  IC50: 0.149 µM
[2]
  IC50: 0.429 µM

## CCNC(=O)[C@H](NC(=O)c1noc(-c2cc(C(C)C)c(O)cc2O)c1-c1ccc(CN2CCOCC2)cc1)C(C)C
NCI-H3122 [1]
  IC50: 0.034 µM
[2]
  IC50: 0.028 µM

## COC(=O)[C@@H](Cc1ccccc1)NC(=O)COCCOCCOCCNC(=O)c1noc(-c2cc(C(C)C)c(O)cc2O)c1-c1ccc(CN2CCOCC2)cc1
NCI-H3122 [1]
  IC50: 0.04 µM
[2]
  IC50: 0.122 µM

## COC(=O)[C@H](NC(=O)CCCCCNC(=O)c1noc(-c2cc(C(C)C)c(O)cc2O)c1-c1ccc(CN2CCOCC2)cc1)C(C)C
NCI-H3122 [1]
  IC50: 0.065 µM
[2]
  IC50: 0.098 µM

## COC(=O)[C@@H](Cc1ccccc1)NC(=O)COCCOCCNC(=O)c1noc(-c2cc(C(C)C)c(O)cc2O)c1-c1ccc(CN2CCOCC2)cc1
NCI-H3122 [1]
  IC50: 1.53 µM
[2]
  IC50: > 1 µM

## COC(=O)[C@@H](CC1CCCCC1)NC(=O)c1noc(-c2cc(C(C)C)c(O)cc2O)c1-c1ccc(CN2CCOCC2)cc1
NCI-H3122 [1]
  IC50: > 10 µM
[2]
  IC50: 0.836 µM

## COC(=O)[C@@H](Cc1ccccc1)NC(=O)c1cnc(N2CCC(CNC(=O)c3noc(-c4cc(C(C)C)c(O)cc4O)c3-c3ccc(CN4CCOCC4)cc3)CC2)nc1
NCI-H3122 [1]
  IC50: 1.13 µM
[2]
  IC50: 0.749 µM

## CC(C)c1cc(-c2onc(C(=O)N[C@@H](C(=O)OC(C)(C)C)C(C)C)c2-c2ccc(CN3CCOCC3)cc2)c(O)cc1O
NCI-H3122 [1]
  IC50: < 0.001 µM
[2]
  IC50: 0.112 µM

## CCOC(=O)[C@H](NC(=O)c1noc(-c2cc(C(C)C)c(O)cc2O)c1-c1ccc(CN2CCOCC2)cc1)C(C)C
NCI-H3122 [1]
  IC50: 0.002 µM
NCI-H3122 [3]
  Ratio IC50: 10
[2]
  IC50: 0.189 µM

## COC(=O)[C@H](NC(=O)c1cnc(N2CCC(CNC(=O)c3noc(-c4cc(C(C)C)c(O)cc4O)c3-c3ccc(CN4CCOCC4)cc3)CC2)nc1)C(C)C
NCI-H3122 [1]
  IC50: 0.278 µM
[2]
  IC50: 0.407 µM

## COC(=O)[C@H](NC(=O)[C@H](NC(=O)C(NC(=O)c1noc(-c2cc(C(C)C)c(O)cc2O)c1-c1ccc(CN2CCOCC2)cc1)C(C)C)C(C)C)C(C)C (single isomer, unassigned)
NCI-H3122 [1]
  IC50: 0.034 µM
[2]
  IC50: 0.259 µM

## COC(=O)[C@@H](Cc1ccccc1)NC(=O)[C@H](NC(=O)c1noc(-c2cc(C(C)C)c(O)cc2O)c1-c1ccc(CN2CCOCC2)cc1)C(C)C
NCI-H3122 [1]
  IC50: 0.079 µM
[2]
  IC50: 0.397 µM

## CC(C)c1cc(-c2onc(C(=O)N[C@@H](C(=O)NC3(CO)CC3)C(C)C)c2-c2ccc(CN3CCOCC3)cc2)c(O)cc1O
NCI-H3122 [1]
  IC50: 0.081 µM
[2]
  IC50: 0.106 µM

## COC(=O)[C@H](NC(=O)[C@H](NC(=O)[C@H](NC(=O)[C@H](NC(=O)c1noc(-c2cc(C(C)C)c(O)cc2O)c1-c1ccc(CN2CCOCC2)cc1)C(C)C)C(C)C)C(C)C)C(C)C
NCI-H3122 [1]
  IC50: 0.638 µM
[2]
  IC50: 0.528 µM

## COC(=O)[C@H](NC(=O)COCCOCCOCCNC(=O)c1noc(-c2cc(C(C)C)c(O)cc2O)c1-c1ccc(CN2CCOCC2)cc1)C(C)C
MDA-MB-231
  IC50: 0.13 µM
NCI-H3122 [1]
  IC50: 0.042 µM
NCI-H460
  IC50: 0.247 µM
DU-145
  IC50: 0.239 µM
[4]
  inhibition: Active
BT-474
  IC50: 0.057 µM
[5]
  inhibition: Active
A549
  IC50: 0.351 µM
HCT-116
  IC50: 0.116 µM
U-87 MG
  IC50: 0.109 µM
[6]
  inhibition: Active
[7]
  inhibition: Active
[2]
  IC50: 0.014 µM
NCI-N87
  IC50: 0.564 µM

## COC(=O)[C@@H](CC(C)C)NC(=O)[C@H](NC(=O)c1noc(-c2cc(C(C)C)c(O)cc2O)c1-c1ccc(CN2CCOCC2)cc1)C(C)C
NCI-H3122 [1]
  IC50: > 10 µM
[2]
  IC50: 0.285 µM

## COC(=O)[C@@H](Cc1ccccc1)NC(=O)CCCCCNC(=O)c1noc(-c2cc(C(C)C)c(O)cc2O)c1-c1ccc(CN2CCOCC2)cc1
NCI-H3122 [1]
  IC50: 0.09 µM
[2]
  IC50: 0.307 µM

## COC(=O)[C@@H](CO)NC(=O)c1noc(-c2cc(C(C)C)c(O)cc2O)c1-c1ccc(CN2CCOCC2)cc1
NCI-H3122 [1]
  IC50: 0.227 µM
[2]
  IC50: 0.072 µM

## CC(C)c1cc(-c2onc(C(=O)N[C@@H](C(=O)NCCN3CCOCC3)C(C)C)c2-c2ccc(CN3CCOCC3)cc2)c(O)cc1O
NCI-H3122 [1]
  IC50: 0.139 µM
[2]
  IC50: 0.206 µM

## CCNC(=O)c1noc(-c2cc(C(C)C)c(O)cc2O)c1-c1ccc(CN2CCOCC2)cc1 [LUMINESPIB]
NCI-H3122 [1]
  IC50: 0.014 µM

## COC(=O)[C@@H](Cc1ccccc1)NC(=O)c1noc(-c2cc(C(C)C)c(O)cc2O)c1-c1ccc(CN2CCOCC2)cc1
NCI-H3122 [1]
  IC50: 0.077 µM
[2]
  IC50: 0.26 µM

## COC(=O)[C@@H](Cc1c[nH]c2ccccc12)NC(=O)c1noc(-c2cc(C(C)C)c(O)cc2O)c1-c1ccc(CN2CCOCC2)cc1
NCI-H3122 [1]
  IC50: 0.149 µM
[2]
  IC50: 0.368 µM

## COC(=O)[C@@H](Cc1ccccc1)NC(=O)c1cnc(N2CCN(C(=O)c3noc(-c4cc(C(C)C)c(O)cc4O)c3-c3ccc(CN4CCOCC4)cc3)CC2)nc1
NCI-H3122 [1]
  IC50: 0.164 µM
[2]
  IC50: > 1 µM

## COC(=O)[C@H](NC(=O)[C@H](NC(=O)c1noc(-c2cc(C(C)C)c(O)cc2O)c1-c1ccc(CN2CCOCC2)cc1)C(C)C)C(C)C
NCI-H3122 [1]
  IC50: > 10 µM
[2]
  IC50: 0.206 µM
